According to patent publication US20240148728A1, “NOVEL METHOD TO BLOCK IN[…] DEATH AND IL-1BETA SECRETION CAUSED BY […] UV I[…] GENETIC AND CHEMICAL INHIBITORS OF ZAKA AND THE NLRP1 INFLAMMASOME” (priority 2021, published 2024):
“Also recorded” adds a separate entry of the source.

Legend:
ASC = assay: Phosphorylation of inflammasome adaptor ASC; format: cell-based, human; conditions: data not shown
MV4-11 = assay: GSDMD cleavage in MV4-11 leukemia cell line; format: cell-based, human; conditions: CARD8-activating cell line
human DPP9 = target: T1, human DPP9 (Homo sapiens, UniProt Q86TI2); assay: DPP8/9 activity assay (in vitro proteolysis assay); format: biochemical; conditions: Gly-Pro-AMC hydrolysis
T1 construct: expressed in transfected cells; host or cells: 293T
T1 sequence (Q86TI2 whole entry): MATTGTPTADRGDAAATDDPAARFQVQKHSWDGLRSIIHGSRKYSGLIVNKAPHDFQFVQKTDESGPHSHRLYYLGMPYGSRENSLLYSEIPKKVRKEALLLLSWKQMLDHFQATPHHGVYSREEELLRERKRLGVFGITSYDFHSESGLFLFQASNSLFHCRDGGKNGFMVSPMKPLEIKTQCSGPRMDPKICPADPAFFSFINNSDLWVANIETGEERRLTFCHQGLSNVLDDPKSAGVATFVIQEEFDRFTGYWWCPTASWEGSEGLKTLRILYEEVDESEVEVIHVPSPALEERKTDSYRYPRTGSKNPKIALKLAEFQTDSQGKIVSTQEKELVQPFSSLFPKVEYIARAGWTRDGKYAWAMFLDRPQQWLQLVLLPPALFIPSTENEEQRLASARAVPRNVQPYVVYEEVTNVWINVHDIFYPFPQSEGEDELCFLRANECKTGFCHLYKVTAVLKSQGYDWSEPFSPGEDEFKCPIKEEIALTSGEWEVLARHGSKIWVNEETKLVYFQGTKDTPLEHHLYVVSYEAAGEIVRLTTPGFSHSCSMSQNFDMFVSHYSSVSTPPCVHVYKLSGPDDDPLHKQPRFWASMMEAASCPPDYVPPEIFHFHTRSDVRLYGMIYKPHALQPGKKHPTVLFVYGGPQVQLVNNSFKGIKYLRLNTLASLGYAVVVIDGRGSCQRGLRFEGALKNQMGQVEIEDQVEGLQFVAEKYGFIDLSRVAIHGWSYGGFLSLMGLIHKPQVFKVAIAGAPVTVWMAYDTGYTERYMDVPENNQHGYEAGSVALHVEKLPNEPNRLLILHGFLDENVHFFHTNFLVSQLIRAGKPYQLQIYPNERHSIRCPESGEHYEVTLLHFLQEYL
Experimental: 293T cells were transfected with vector or wild-type DPP9. DPP9-transfected cells were treated with VbP, Anisomycin (ANS) or Harringtonine (HTN). Cells were lysed in PBS 1% Tween-20, 48 h after transfection and treatments. 0.3 μg of total lysate was then incubated with 0.1 μM uGly-Pro-AMC fluorescence substrate. AMC fluorescence was measured after 30 mins at 25° C. in a 50 μl reaction every minute on a spectrometer and the rate of Gly-Pro-AMC hydrolysis per minute calculated.

[1] = system: immortalized keratinocytes (N-TERT); assay: Pyroptosis / apoptosis in N-TERT keratinocytes (morphology, ASC-GFP, PI, Annexin V, immunoblot); format: cell-based, human
Description: (§1) The following antibodies were used in this study: cleaved PARP1 (Abclonal, #WH162766), Cleaved CASP3 (Abclonal, #WH154646), Full length GSDMD-FL (Abcam, #ab210070), IL1β p17 specific (CST, #83186S), CARD8 (Abcam, CARD8-NT: ab19485, CARD8-CT: ab241186), DPP9 (Abcam, ab226334), c-Myc (Santa Cruz Biotechnology, #sc-40), HA tag (Santa Cruz Biotechnology, #sc-805), GAPDH (Santa Cruz Biotechnology, #sc-47724), ASC (Adipogen, #AL-177), CASP1 (Santa Cruz Biotechnology, #sc-622), 11_1B (R&D systems, #AF-201), FLAG (SigmaAldrich, #F3165), NLRP1 (R&D systems, #AF6788), IL18 (Abcam ab207324), cleaved GSDMD-NT (Asp275) (Cell Signaling Technology, #36425), RPL31 (Abclonal, #WH162766), CASP7 (Abcam, ab255818), CASP8 (Abcam, ab32397), cleaved CASP3 (Cell Signaling Technology, #9664). All horseradish peroxidase (HRP)— conjugated secondary antibodies were purchased from Jackson Immunoresearch (goat anti-mouse IgG: 115-035-166; goat anti-rabbit IgG: 111-035-144; and donkey anti-goat IgG: 705-005-147). Blue-Native PAGE was carried out using the Native-PAGE system (ThermoFisher) with 10-20 μg of total lysate. For SDS-PAGE using whole cell lysates, cells were resuspended in tris-buffered saline 1% NP-40 with protease inhibitors (Thermo Scientific, #78430). Protein concentration was determined using the Bradford assay (Thermo Scientific, #23200) and […] of protein loaded, a part from cleaved GSDMD-NT visualisation where […] of protein was used. All primary antibodies were used at 250 ng/ml. Visualisation of ASC oligomerization was previously described (Robinson et al., 2020). For analysis of IL1β and IL-18 cleavage in the media by immunoblotting, samples were concentrated using filtered centrifugation (Merck, Amicon Ultra, #UFC5003BIK). Protein samples were run using immunoblotting, and then visualized using a ChemiDoc Imaging system (Bio-Rad). PhosTag SDS-PAGE was carried out using homemade 10% SDS-PAGE gel, with addition of Phos-tag Acrylamide (Wako Chemicals, AAL-107) to a final concentration of 30 μM and manganese chloride(II) (Sigma-Aldrich, #63535) to 60 μM.
N-TERT-ASC-GFP cells were seeded at a cell density of 3000 cells/well of a 96 black well plate (PerkinElmer, CellCarrier-96 Ultra, #6055300). The next morning cells were treated with chemicals for 6 h or treated in the evening for 24 h before staining. 1 hour before observing the cells on the microscope the cells were stained with 1 μg/ml dilution of propidium iodide (PI, Abcam #ab14083), 10 ng/ml dilution of Hoechst 33342 (Life Technologies, #H21492) or stained with Annexin V Alexa Flour 647 (Life technologies, #A23204) according to the manufacturer's protocol. Stained cells were then imaged on a high content screening microscope (Perkin Elmer Operetta CLS imaging system). Images were then stored and analyzed using the Harmony software (Version 6). Fluorescent and brightfield images acquired on the Operetta high content screening microscope were further analyzed using a scoring system to categorize the percentages of live, apoptotic and pyroptotic cells. For 3 fields of view per treatment the number of live cells per field was counted from the merge of the brightfield and ASC-GFP channels. Only cells which contained ASC-GFP throughout the cytoplasm and nucleus were classed as “live”. The number of pyroptotic cells was calculated using the merge of the brightfield and ASC-GFP channels. Only the cells with GFP specks were classed as “pyroptotic”. The number of apoptotic cells was calculated using the merge of the brightfield, ASC-GFP and Annexin V channels. Cells that were stained positive for Annexin V but without a GFP speck were classified as “apoptotic”. Images of ASC-GFP specks were acquired in 3 random fields in 4′,6-diaminidino-2-phenylindole (DAPI, 358 nm/461) and GFP (469 nm/525 nm) channels using the EVOS microscope (FL Auto M5000, #AM F5000) according to the manufacturer's protocol. […]

293T-ASC-GFP-NLRP1 = format: cell-based, human
[2] = system: primary bronchial epithelial cells (NHBEs); assay: Inflammasome activation and pyroptosis in primary bronchial epithelial cells; format: cell-based, human; conditions: ANS 1 μM
NLRP1^DR = assay: NLRP1 PYD-DR1 / NLRP1^DR phosphorylation (GFP fusion, immunoblot, PhosTag SDS-PAGE) in N-TERT cells; format: cell-based, human
Description: as §1
Cells were directly harvested using Laemmli buffer, lysed with an ultrasonicator, and loaded into the Phos-tag gel to run. Once the run was completed, the polyacrylamide gel was washed in transfer buffer with 10 mM EDTA twice, subsequently washed without EDTA twice, blotted onto 0.45 μm PVDF membranes (Bio-rad), blocked with 3% milk, and incubated with primary and corresponding secondary antibodies.

COc1ccc(C[C@H]2NC[C@H](O)[C@H]2OC(C)=O)cc1 [ANS, Anisomycin]
phosphorylation of ASC (ASC): not phosphorylated | GSDMD cleavage (MV4-11): did not display detectable GSDMD cleavage | catalytic activity of human DPP9 (human DPP9): had no effect on the catalytic activity of human DPP9 | mode of cell death (apoptosis / pyroptosis) ([1]; Annexin V staining and PI inclusion, immunoblot markers): caused both apoptosis and pyroptosis; also recorded: activate both forms of cell death | mode of cell death in NLRP1 KO cells ([1]; NLRP1 KO N-TERT, Annexin V and PI staining): died exclusively through apoptosis | apoptotic cell death (cleaved caspase-3 and PARP-1) ([1]; immunoblot): activated classical apoptotic cell death | biochemical hallmarks of inflammasome activation (ASC polymerization, GSDMD-NT, IL1β p17 in media) ([1]; immunoblot): displayed cardinal biochemical hallmarks of inflammasome activation | morphological hallmarks of inflammasome activation and pyroptotic cell death ([1]; membrane ballooning, ASC-GFP specks, PI uptake): rapidly induced the morphological hallmarks of inflammasome activation and pyroptotic cell death | fraction of pyroptotic cells ([1]; single cell level, compared with VbP): comparable to that induced by VbP | ASC-GFP speck formation, screen of cytotoxic chemicals (293T-ASC-GFP-NLRP1; ANS 1 μM, LTM 1 μg/ml, STS 1 μM): identified two hits | percentage of cells with ASC-GFP specks compared with VbP (293T-ASC-GFP-NLRP1; equivalent concentrations): to a greater extent than VbP at equivalent concentrations | dose dependence of percentage of cells with ASC-GFP specks (293T-ASC-GFP-NLRP1; increasing levels of ANS): in a dose-dependent manner (FIG. 2B) up to 20 μM | canonical inflammasome activation and pyroptosis [2]: underwent canonical inflammasome activation and pyroptosis | NLRP1^DR hyperphosphorylation (NLRP1^DR; NLRP1DR-GFP in N-TERT cells, PhosTag SDS-PAGE): became further phosphorylated | band shift (phosphorylation) of PYD-DR1-GFP (NLRP1^DR; NLRP1 KO N-TERT cells expressing GFP-tagged PYD-DR1): band shift in PYD-DR1-GFP
